Consider 12 compounds from patent US20260232682A1, “GSPT1 DEGRADER COMPOUNDS” (Captor Therapeutics S.A., priority 2023, published 2026).

Test [1] addresses T1, GSPT1-HiBiT protein in GSPT1-HiBiT HEK293 cells (Homo sapiens, UniProt P15170+Q96SW2).
T1 construct: endogenous in cells; host or cells: HEK293 (CRISPR/Cas9 knock-in of HiBiT at the GSPT1 locus)
The test can be described thus: GSPT1 degradation assay using HiBiT system (Nano-Glo HiBiT lytic assay). The format is cell-based. Conditions: 6 hours treatment; for DC50: read-out: HiBiT lytic assay Geomean absolute DC50. The method in brief: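 CRISPR-engineered HEK293 cells expressing endogenous C-terminally HiBiT-tagged GSPT1, seeded at 2×10^3/well overnight, then treated 6 h at 37 °C with 12-point titrations (10 μM to 0.03 nM, 0.25% DMSO). Remaining GSPT1 measured by Nano-Glo HiBiT lytic luminescence. DC50 and Dmax from non-linear regression of DMSO-normalized RLU.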

The target of test [2] is [GSPT1]-[compound of formula (I)]-[CRBN/DDB1] complex (Homo sapiens, UniProt P15170+Q96SW2). Put plainly: HTRF ternary complex assay (GSPT1). It is filed as binding. The following applies: read-out: HTRF ternary complex Average pEC50 by molecule (converted). The method in brief: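 Compounds in dose-response were incubated 180 min at 25 °C with 48 nM GSPT1 and 52.8 nM 6×His-CRBN/DDB1, plus Streptavidin-Eu cryptate and anti-6×His-d2, in buffer with 1 mM DTT and 0.5% DMSO. TR-FRET (665/620) was normalized to DMSO background and fitted with a Hill slope model for EC50/pEC50.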
On the technique in general: TR-FRET usually uses a lanthanide donor and a delayed reading to cut background.

In test [3] the test system is GSPT1-HiBiT HEK293 cells. The test can be described thus: Cell Viability-CTG assay accompanying the Nano-Glo HiBiT assay. The following applies: 6 hours treatment, viability of GSPT1-HiBiT HEK293 cells. The format is cell-based. In a few lines: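 HEK293 GSPT1-HiBiT cells treated as for the HiBiT assay, incubated 6 h at 37 °C/5% CO2, then equilibrated to RT. Viability read by CellTiter-Glo luminescence after 4 min shaking and 8 min dark incubation; Mean Minimum values derived by non-linear regression of RLU data.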

Chain of [GSPT1]-[compound of formula (I)]-[CRBN/DDB1] complex (P15170 whole entry): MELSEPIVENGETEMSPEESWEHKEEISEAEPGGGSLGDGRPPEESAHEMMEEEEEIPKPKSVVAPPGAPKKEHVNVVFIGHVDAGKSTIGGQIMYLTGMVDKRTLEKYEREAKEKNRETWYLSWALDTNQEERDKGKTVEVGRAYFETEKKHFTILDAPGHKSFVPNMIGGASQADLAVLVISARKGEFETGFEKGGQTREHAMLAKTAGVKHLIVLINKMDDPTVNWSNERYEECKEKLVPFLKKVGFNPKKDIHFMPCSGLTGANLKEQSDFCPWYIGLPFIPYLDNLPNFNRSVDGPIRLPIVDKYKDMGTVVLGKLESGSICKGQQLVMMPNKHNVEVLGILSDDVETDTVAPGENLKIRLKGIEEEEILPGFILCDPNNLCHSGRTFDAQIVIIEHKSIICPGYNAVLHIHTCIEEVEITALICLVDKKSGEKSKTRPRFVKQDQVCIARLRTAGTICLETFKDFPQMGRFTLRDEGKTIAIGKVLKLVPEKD
Chain of [GSPT1]-[compound of formula (I)]-[CRBN/DDB1] complex (Q96SW2 whole entry): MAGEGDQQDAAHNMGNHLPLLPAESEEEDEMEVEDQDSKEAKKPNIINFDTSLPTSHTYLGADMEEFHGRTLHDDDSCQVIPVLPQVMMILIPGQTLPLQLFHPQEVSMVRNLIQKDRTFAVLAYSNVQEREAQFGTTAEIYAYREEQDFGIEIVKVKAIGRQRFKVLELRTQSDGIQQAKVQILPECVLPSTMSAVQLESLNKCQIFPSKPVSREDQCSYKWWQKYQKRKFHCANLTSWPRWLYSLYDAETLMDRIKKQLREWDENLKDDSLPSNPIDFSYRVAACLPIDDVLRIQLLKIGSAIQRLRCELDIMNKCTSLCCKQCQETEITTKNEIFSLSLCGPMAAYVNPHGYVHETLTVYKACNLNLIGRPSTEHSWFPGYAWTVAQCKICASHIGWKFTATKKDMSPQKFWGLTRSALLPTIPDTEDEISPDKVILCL
Chain of [GSPT1]-[compound of formula (I)]-[CRBN/DDB1] complex (Q16531 whole entry partner): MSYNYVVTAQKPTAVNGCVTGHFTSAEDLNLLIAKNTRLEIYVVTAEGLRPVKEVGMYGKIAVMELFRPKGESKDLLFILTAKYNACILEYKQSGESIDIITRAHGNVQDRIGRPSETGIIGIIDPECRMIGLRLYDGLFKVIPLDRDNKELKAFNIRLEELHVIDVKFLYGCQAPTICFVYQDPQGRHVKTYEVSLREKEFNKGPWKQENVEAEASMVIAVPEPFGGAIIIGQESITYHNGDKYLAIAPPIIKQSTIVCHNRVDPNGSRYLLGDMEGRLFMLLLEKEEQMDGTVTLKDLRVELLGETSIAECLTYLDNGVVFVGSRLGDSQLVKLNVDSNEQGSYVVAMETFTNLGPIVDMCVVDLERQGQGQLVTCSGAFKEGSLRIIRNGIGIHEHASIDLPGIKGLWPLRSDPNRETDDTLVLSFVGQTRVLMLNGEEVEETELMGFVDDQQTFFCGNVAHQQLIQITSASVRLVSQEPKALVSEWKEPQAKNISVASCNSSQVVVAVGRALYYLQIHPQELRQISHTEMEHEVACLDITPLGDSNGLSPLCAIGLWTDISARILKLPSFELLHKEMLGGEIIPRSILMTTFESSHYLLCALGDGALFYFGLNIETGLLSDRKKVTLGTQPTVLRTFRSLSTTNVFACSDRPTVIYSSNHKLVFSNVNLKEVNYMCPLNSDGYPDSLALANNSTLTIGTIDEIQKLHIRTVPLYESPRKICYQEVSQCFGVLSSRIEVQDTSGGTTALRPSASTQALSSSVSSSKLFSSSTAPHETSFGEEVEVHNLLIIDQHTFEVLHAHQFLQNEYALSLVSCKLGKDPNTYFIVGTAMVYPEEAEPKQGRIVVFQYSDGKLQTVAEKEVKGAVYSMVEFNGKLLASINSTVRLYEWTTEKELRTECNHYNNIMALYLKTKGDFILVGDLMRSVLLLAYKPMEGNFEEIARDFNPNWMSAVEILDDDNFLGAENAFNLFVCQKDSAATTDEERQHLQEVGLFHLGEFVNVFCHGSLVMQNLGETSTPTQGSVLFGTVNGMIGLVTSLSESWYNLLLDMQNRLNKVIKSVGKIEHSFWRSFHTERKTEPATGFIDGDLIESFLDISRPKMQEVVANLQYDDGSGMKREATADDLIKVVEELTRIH
T1 sequence (P15170 whole entry): as the sequence (P15170 whole entry) above
T1 sequence (Q96SW2 whole entry): as the sequence (Q96SW2 whole entry) above
T1 sequence (Q16531 whole entry partner): as the sequence (Q16531 whole entry partner) above

One may read the Dmax as the greatest extent of degradation seen. For orientation: DC50 means the concentration at which degradation of the target reaches its halfway point. On to `Cc1nc2cc(CNC(=O)Nc3cc(C(C)(C)C)no3)ccc2cc1N1CCC(=O)NC1=O` [Compound 64, 1-(3-(tert-butyl)isoxazol-5-yl)-3-((3-(2,4-dioxotetrahydropyrimidin-1(2H)-yl)-2-methylquinolin-7-yl)methyl)urea], for which, in test [1], the Dmax is ≥ 75% and the DC50 was > 0.1 µM. In test [2], the EC50 is < 0.316 µM. In addition, in test [3], the “CTG assay Mean minimum” value is reported as “++++ (++++≥75% of viability of the HiBiT-GSPT1 HEK293 cells)”.
The corresponding values for `Cc1nc2ccc(COC(=O)Nc3cc(C(C)(C)C)no3)cc2cc1N1CCC(=O)NC1=O` [Compound 66, (3-(2,4-dioxotetrahydropyrimidin-1(2H)-yl)-2-methylquinolin-6-yl)methyl (3-(tert-butyl)isoxazol-5-yl)carbamate] are ≥ 75%, 0.01 to 0.05 µM, 0.316 to 3.16 µM and “++++ (++++≥75% of viability of the HiBiT-GSPT1 HEK293 cells)”.
With `Cc1nc2ccc(CNC(=O)Nc3cc(C(C)(C)C)no3)cc2cc1N1CCC(=O)NC1=O` [Compound 67, 1-(3-(tert-butyl)isoxazol-5-yl)-3-((3-(2,4-dioxotetrahydropyrimidin-1(2H)-yl)-2-methylquinolin-6-yl)methyl)urea], in test [1], the greatest degradation seen (Dmax) is ≥ 75% and the DC50 fell in the range of 0.01 to 0.05 µM. Further, in test [2], the EC50 is < 0.316 µM. In test [3], the “CTG assay Mean minimum” value is “++++ (++++≥75% of viability of the HiBiT-GSPT1 HEK293 cells)”.
Consider `Cc1nc2cc(COC(=O)Nc3cc(C(F)(F)F)n[nH]3)ccc2cc1C1CCC(=O)NC1=O` (stereo not drawn) [Compound 69, (3-(2,6-dioxopiperidin-3-yl)-2-methylquinolin-7-yl)methyl (3-(trifluoromethyl)-1H-pyrazol-5-yl)carbamate], for which, in test [1], the greatest degradation seen (Dmax) was ≥ 75% and the DC50 was in the range of 0.01 to 0.05 µM. The EC50 in test [2] is 0.316 to 3.16 µM. Also, the “CTG assay Mean minimum” value in test [3] was “++++ (++++≥75% of viability of the HiBiT-GSPT1 HEK293 cells)”.
The corresponding values for `Cc1nc2cc(COC(=O)Nc3cc(C(C)(C)C)on3)ccc2cc1C1CCC(=O)NC1=O` (stereo not drawn) [Compound 70, (3-(2,6-dioxopiperidin-3-yl)-2-methylquinolin-7-yl)methyl (5-(tert-butyl)isoxazol-3-yl)carbamate] are ≥ 75%, < 0.01 µM, < 0.316 µM and “++++ (++++≥75% of viability of the HiBiT-GSPT1 HEK293 cells)”.
The corresponding values for `Cc1nc2cc(COC(=O)Nc3cc(C(F)(F)F)no3)ccc2cc1C1CCC(=O)NC1=O` (stereo not drawn) [Compound 71, (3-(2,6-dioxopiperidin-3-yl)-2-methylquinolin-7-yl)methyl (3-(trifluoromethyl)isoxazol-5-yl)carbamate] are ≥ 75%, 0.05 to 0.1 µM, > 3.16 µM and “++++ (++++≥75% of viability of the HiBiT-GSPT1 HEK293 cells)”.
The matching figures for `Cc1nc2cc(COC(=O)Nc3cc(C(C)(C)C)no3)ccc2cc1N1CCC(=O)NC1=O` [Compound 72, (3-(2,4-dioxotetrahydropyrimidin-1(2H)-yl)-2-methylquinolin-7-yl)methyl (3-(tert-butyl)isoxazol-5-yl)carbamate]: ≥ 75%, 0.01 to 0.05 µM, 0.316 to 3.16 µM and “++++ (++++≥75% of viability of the HiBiT-GSPT1 HEK293 cells)”.
Regarding `Cc1ccc(NC(=O)OCc2ccc3cc(C4(F)CCC(=O)NC4=O)c(C)nc3c2)cc1Cl` (stereo not drawn) [Compound 74, (3-(3-fluoro-2,6-dioxopiperidin-3-yl)-2-methylquinolin-7-yl)methyl (3-chloro-4-methylphenyl)carbamate], in test [1], the Dmax was ≥ 75% and the 50% degradation concentration (DC50) is > 0.1 µM. The EC50 in test [2] is > 3.16 µM. Besides, in test [3], the “CTG assay Mean minimum” value is reported as “++++ (++++≥75% of viability of the HiBiT-GSPT1 HEK293 cells)”.
The matching figures for `Cc1nc2cc(COC(=O)Nc3cc(C(C)(C)C)n[nH]3)ccc2cc1C1CCC(=O)NC1=O` (stereo not drawn) [Compound 75, (3-(2,6-dioxopiperidin-3-yl)-2-methylquinolin-7-yl)methyl (3-(tert-butyl)-1H-pyrazol-5-yl)carbamate]: ≥ 75%, 0.01 to 0.05 µM, 0.316 to 3.16 µM and “++++ (++++≥75% of viability of the HiBiT-GSPT1 HEK293 cells)”.
The corresponding values for `Cc1nc2cc(COC(=O)Nc3nc(C(C)(C)C)no3)ccc2cc1C1CCC(=O)NC1=O` (stereo not drawn) [Compound 80, (3-(2,6-dioxopiperidin-3-yl)-2-methylquinolin-7-yl)methyl (3-(tert-butyl)-1,2,4-oxadiazol-5-yl)carbamate] are ≥ 75%, 0.01 to 0.05 µM, 0.316 to 3.16 µM and “++++ (++++≥75% of viability of the HiBiT-GSPT1 HEK293 cells)”.
The matching figures for `Cc1nc2cc(COC(=O)Nc3cc(C4(C(F)(F)F)CC4)no3)ccc2cc1C1CCC(=O)NC1=O` (stereo not drawn) [Compound 81, (3-(2,6-dioxopiperidin-3-yl)-2-methylquinolin-7-yl)methyl (3-(1-(trifluoromethyl)cyclopropyl)isoxazol-5-yl)carbamate]: ≥ 75%, < 0.01 µM, < 0.316 µM and “++++ (++++≥75% of viability of the HiBiT-GSPT1 HEK293 cells)”.
Regarding `[2H]C([2H])(OC(=O)Nc1cc(C(C)(C)C)no1)c1ccc2cc(C3CCC(=O)NC3=O)c(C)nc2c1` (stereo not drawn) [Compound 82, (3-(2,6-dioxopiperidin-3-yl)-2-methylquinolin-7-yl)methyl-d2 (3-(tert-butyl)isoxazol-5-yl)carbamate], in test [1], the Dmax is ≥ 75% and the DC50 was < 0.01 µM. Further, the EC50 in test [2] was < 0.316 µM. For the same compound, in test [3], the “CTG assay Mean minimum” value was “++++ (++++≥75% of viability of the HiBiT-GSPT1 HEK293 cells)”.
